Read-outs that look alike come from different tables or passages of the source.
System: HIV-1 (NL4-3 strain)
Assay: Assay for inhibition of HIV replication (ViKinG; infected MT4-GFP cells)
Format: cell-based
Method: Assay for inhibition of HIV replication
MT4-GFP cells (250,000 cells/ml) were bulk-infected with HIV-1 (NL4-3 strain) at low multiplicity of infection (MOI) in RPMI+10% FBS for 24 hours. […] Test compounds were serial-diluted in DMSO on ECHO. The infected MT4-GFP cells were added to a 384-well poly-D-lysine coated black plate with clear bottom in which the diluted test compounds were placed. The cells were seeded at 8,000 cells per well and the final DMSO concentration was 0.4%. The infected cells (Green GFP cells) were quantified at both 24 and 48 hours post incubation using Acumen eX3. Viral reproductive ratio (R0) was determined using the number of infected cells at 48 hours divided by the number of infected cells at 24 hours. Percent viral growth inhibition was calculated by [1−(R−Rtripledrug)/(RDMSO−Rtripledrug)]*100. Compound potency IP or IC50 was determined by a 4-parameter dose response curve analysis.

[1] = Human immunodeficiency virus 1, NL43, MT4-GFP cells infected with HIV-1 NL4-3, 0% normal human serum (NHS), read-out: ViKinG IP (nM) with 0% NHS
[2] = Human immunodeficiency virus 1, NL43, MT4-GFP cells infected with HIV-1 NL4-3, 10% normal human serum (NHS), read-out: ViKinG IP (nM) with 10% NHS
[3] = MT4-GFP cells infected with HIV-1 NL4-3, 0% normal human serum (NHS), read-out: ViKinG IP (nM) with 0% NHS
[4] = MT4-GFP cells infected with HIV-1 NL4-3, 10% normal human serum (NHS), read-out: ViKinG IP (nM) with 10% NHS
[5] = MT4-GFP cells infected with HIV-1 NL4-3, 100% normal human serum (NHS), read-out: ViKinG IP (nM) with 100% NHS
[6] = Human immunodeficiency virus 1, NL43, MT4-GFP cells infected with HIV-1 NL4-3, 100% normal human serum (NHS), read-out: ViKinG IP (nM) with 100% NHS

Question: `COC1(C)CCC2(CC1)N(C)C(=O)c1c(O)c(=O)c(-c3nnc(Cc4ccc(F)cc4F)s3)cn1N2C` (stereo not shown) [Compound 72] was tested. Which IC50 [1] did it give?
Answer: 6.07 nM

Question: What about the IC50 [2] of the same compound?
Answer: 9.93 nM

Question: Which results are given for `COc1cc(CNC(=O)C2CCC3(CC2)N(C)C(=O)c2c(O)c(=O)c(-c4nnc(Cc5ccc(F)cc5F)s4)cn2N3C)on1` (stereo not shown) [Compound 136]?
Answer: IC50 [3]: 30.8 nM; IC50 [4]: 151 nM

Question: Which results are given for `CCCOC1CCC2(CC1)N(CC)C(=O)c1c(O)c(=O)c(-c3nnc(Cc4ccc(F)cc4F)s3)cn1N2C` (stereo not shown) [Compound 61]?
Answer: IC50 [3]: 23.8 nM; IC50 [5]: 221 nM

Question: How did the IC50 [3] turn out when `CCN1C(=O)c2c(O)c(=O)c(-c3nnc(Cc4ccc(F)cc4F)s3)cn2N(C)C12CCC(Oc1ccccc1)CC2` (stereo not shown) [Compound 54] was run?
Answer: 82.8 nM

Question: And the IC50 [5]?
Answer: 1470 nM

Question: With `CN(C)C(=O)C1(C)CCC2(CC1)N(C)C(=O)c1c(O)c(=O)c(-c3nnc(Cc4ccc(F)cc4)s3)cn1N2C` (stereo not shown) [Compound 147] as the compound, how does the IC50 [2] read?
Answer: 15.1 nM

Question: And the IC50 [6]?
Answer: 117 nM

Question: `CCN1C(=O)c2c(O)c(=O)c(-c3nnc(Cc4ccc(F)cc4)s3)cn2N(C)C1C1CCOCC1` (racemic) [Compound 219] was tested. Which IC50 [2] did it give?
Answer: 26.9 nM

Question: What does the source list for `CCN1C(=O)c2c(O)c(=O)c(-c3nnc(Cc4ccc(F)cc4F)s3)cn2N(C)C12CCCc1sccc12` (racemic) [Compound 42]?
Answer: IC50 [1]: 92.5 nM; IC50 [2]: 321 nM

Question: What does the source list for `CCCOC1CCC2(CC1)N(CC)C(=O)c1c(O)c(=O)c(C(=O)NCc3ccc(F)cc3F)cn1N2C` (stereo not shown) [Compound 193]?
Answer: IC50 [3]: 8.24 nM; IC50 [5]: 84.8 nM

Question: With `CCN1C(=O)c2c(O)c(=O)c(-c3nnc(Cc4ccc(F)cc4F)s3)cn2N(C)C12CC[C@H](C(=O)OC)[C@H](C)C2` (stereo partly shown) [Compound 31] as the compound, how does the IC50 [4] read?
Answer: 32.2 nM

Question: `CN1C(=O)c2c(O)c(=O)c(-c3nnc(Cc4ccc(F)cc4F)s3)cn2N(C)C12CCC(C(=O)N1CCC(F)(F)C1)CC2` (stereo not shown) [Compound 117] was tested. Which IC50 [1] did it give?
Answer: 20.4 nM

Question: And the IC50 [4]?
Answer: 42.7 nM

Question: What does the source list for `CCOC1CCC2(CC1)N(CC)C(=O)c1c(O)c(=O)c(C(=O)NCc3ccc(F)cc3F)cn1N2C` (stereo not shown) [Compound 191]?
Answer: IC50 [1]: 6.74 nM; IC50 [5]: 239 nM

Question: `COCCN1C(=O)c2c(O)c(=O)c(-c3nnc(Cc4ccc(F)cc4F)s3)cn2N(C)C12CC[C@H]1C[C@H]12` (mixture of isomers) [Compound 202] was tested. Which IC50 [1] did it give?
Answer: 8.36 nM

Question: What about the IC50 [2] of the same compound?
Answer: 1180 nM

Question: Which results are given for `CN1C(=O)c2c(O)c(=O)c(-c3nnc(Cc4ccc(F)cc4F)s3)cn2N(C)C12CCC(C(=O)NC1(C)CC1)CC2` (stereo not shown) [Compound 113]?
Answer: IC50 [3]: 22.2 nM; IC50 [4]: 72.2 nM

Question: Which results are given for `CN1C(=O)c2c(O)c(=O)c(-c3nnc(Cc4ccc(F)cc4F)s3)cn2N(C)C12CCC(C(=O)N1CC(F)(F)C1)CC2` (stereo not shown) [Compound 120]?
Answer: IC50 [3]: 5.51 nM; IC50 [4]: 11.7 nM; IC50 [5]: 516 nM

Question: With `CCN1C(=O)c2c(O)c(=O)c(-c3nnc(Cc4ccc(F)cc4F)s3)cn2N(C)C12CCC(c1nc(C)no1)CC2` (stereo not shown) [Compound 46] as the compound, how does the IC50 [1] read?
Answer: 6.78 nM

Question: And the IC50 [6]?
Answer: 139 nM

Question: With `CCN1C(=O)c2c(O)c(=O)c(-c3nnc(Cc4ccc(F)cc4F)s3)cn2N(C)C12CCC(Oc1ccccc1)CC2` (stereo not shown) [Compound 53] as the compound, how does the IC50 [6] read?
Answer: 1030 nM

Question: What about the IC50 [3] of the same compound?
Answer: 15.7 nM

Question: Which IC50 [2] does the source give for `CCN1C(=O)c2c(O)c(=O)c(-c3nnc(Cc4ccc(F)cc4F)s3)cn2N(C)C1c1cccc(OC)n1` (racemic) [Compound 18] here?
Answer: 38.7 nM

Question: What about the IC50 [6] of the same compound?
Answer: 1190 nM

Question: How did the IC50 [3] turn out when `CN1C(=O)c2c(O)c(=O)c(-c3nnc(Cc4ccc(F)cc4F)s3)cn2N(C)C12CCC(C(=O)NCC1CCOC1)CC2` (stereo not shown) [Compound 130] was run?
Answer: 13.7 nM

Question: What about the IC50 [4] of the same compound?
Answer: 33.9 nM

Question: For `CCOC1CCC2(CC1)N(CC)C(=O)c1c(O)c(=O)c(C(=O)NCc3ccc(F)cc3F)cn1N2C` (stereo not shown) [Compound 192], which IC50 [3] is on record?
Answer: 3.66 nM

Question: What about the IC50 [5] of the same compound?
Answer: 67.2 nM

Question: What does the source list for `CCN1C(=O)c2c(O)c(=O)c(-c3nnc(Cc4ccc(F)cc4)s3)cn2N(C)C12CCC(CC(=O)N(C)C)CC2` (stereo not shown) [Compound 97]?
Answer: IC50 [2]: 23.4 nM; IC50 [6]: 133 nM

Question: Which IC50 [1] does the source give for `CN1C(=O)c2c(O)c(=O)c(-c3nnc(Cc4ccc(F)cc4F)s3)cn2N(C)C12CCC1C(=O)NC(=O)C1C2` (stereo not shown) [Compound 80] here?
Answer: 50.1 nM

Question: And the IC50 [6]?
Answer: 915 nM

Question: Which IC50 [1] does the source give for `CCO[C@H]1CC[C@@]2(CC1)N(CC)C(=O)c1c(O)c(=O)c(-c3nnc(Cc4ccc(F)cc4F)s3)cn1N2C` [Compound 9] here?
Answer: 5.06 nM

Question: What about the IC50 [6] of the same compound?
Answer: 141 nM

Question: How did the IC50 [1] turn out when `CC(=O)NC1CCC2(CC1)N(C)C(=O)c1c(O)c(=O)c(-c3nnc(Cc4ccc(F)cc4F)s3)cn1N2C` (stereo not shown) [Compound 82] was run?
Answer: 63.7 nM

Question: And the IC50 [6]?
Answer: 2560 nM

Question: For `COc1cc(CNC(=O)C2CCC3(CC2)N(C)C(=O)c2c(O)c(=O)c(-c4nnc(Cc5ccc(F)cc5F)s4)cn2N3C)on1` (stereo not shown) [Compound 135], which IC50 [2] is on record?
Answer: 290 nM

Question: What about the IC50 [3] of the same compound?
Answer: 76.3 nM

Question: Which results are given for `CN1C(=O)c2c(O)c(=O)c(-c3nnc(Cc4ccc(F)cc4F)s3)cn2N(C)C12CCC(O)C2` (stereo not shown) [Compound 79]?
Answer: IC50 [1]: 3.11 nM; IC50 [2]: 40.9 nM
